Assay results from patent US4742053A, “3-Isoquinoliniomethyl cephalosporin derivatives” (Banyu Pharmaceutical Co., Ltd., priority 1984, dated 1988).
≈ marks a conversion by molar mass, not a printed value. Like-named read-outs stand apart in the source and are kept apart here.

Columns and labels:
Assay in all cases: MIC by agar plate dilution method
Assay type in all cases: cell-based
A. calcoaceticus No. 14 = conditions: Acinetobacter calcoaceticus, NO.14, A. calcoaceticus No. 14; 10^6 CFU/ml; read-out: Minimum Inhibitory Concentration
Protocol: (§1) The minimum inhibitory concentrations (MIC: μg/ml) of the compounds of the present invention against various microorganisms were measured by an agar plate dilution method (inoculum size: 10^6 CFU/ml) by using Sensitivity Disk Agar (Nissui) in comparison with Cefotaxime and Ceftazidime as comparative compounds.
(§2) Minimum Inhibitory Concentration (μg/ml; 10^6 CFU/ml)

C. freundii No. 7 = conditions: Citrobacter freundii; C. freundii No. 7; 10^6 CFU/ml; read-out: Minimum Inhibitory Concentration
Protocol: as §1, §2

E. cloaceae Nek 39 = conditions: E. cloaceae Nek 39; 10^6 CFU/ml; read-out: Minimum Inhibitory Concentration
Protocol: as §1, §2

E. coli C/Rms149 = conditions: Escherichia coli, read-out: Minimum Inhibitory Concentration, E. coli C/Rms149; 10^6 CFU/ml
Protocol: as §1, §2

E. coli CSH2 = conditions: Escherichia coli, 10^6 CFU/ml, read-out: Minimum Inhibitory Concentration
Protocol: as §1, §2

E. coli CSH = conditions: Escherichia coli, 10^6 CFU/ml, read-out: Minimum Inhibitory Concentration
Protocol: as §1, §2

E. coli ML1410/Rte16 = conditions: Escherichia coli, ML1410/RTE16, read-out: Minimum Inhibitory Concentration, E. coli ML1410/Rte16; 10^6 CFU/ml
Protocol: as §1, §2

E. coli NIHJJC-2 = conditions: Escherichia coli, NIHJJC2, E. coli NIHJJC-2; 10^6 CFU/ml; read-out: Minimum Inhibitory Concentration
Protocol: as §1, §2

E. coli W3630/Rms212 = conditions: Escherichia coli, W3630/RMS212, read-out: Minimum Inhibitory Concentration, E. coli W3630/Rms212; 10^6 CFU/ml
Protocol: as §1, §2

E. coli W3630/Rms213 = conditions: Escherichia coli, W3630/RMS213, read-out: Minimum Inhibitory Concentration, E. coli W3630/Rms213; 10^6 CFU/ml
Protocol: as §1, §2

K. pneumoniae No. 42 = conditions: Klebsiella pneumoniae
Protocol: as §1, §2

P. aeruginosa AK109 = conditions: Pseudomonas aeruginosa, AK109, P. aeruginosa AK109; 10^6 CFU/ml; read-out: Minimum Inhibitory Concentration
Protocol: as §1, §2

P. aeruginosa AKR17 = conditions: Pseudomonas aeruginosa, AKR17, P. aeruginosa AKR17; 10^6 CFU/ml; read-out: Minimum Inhibitory Concentration
Protocol: as §1, §2

P. cepacia 23 = conditions: Burkholderia cepacia; P. cepacia 23; 10^6 CFU/ml; read-out: Minimum Inhibitory Concentration
Protocol: as §1, §2

P. maltophilia IID 1275 = conditions: Stenotrophomonas maltophilia, IID1275; P. maltophilia IID 1275; 10^6 CFU/ml; read-out: Minimum Inhibitory Concentration
Protocol: as §1, §2

P. mirabilis JY10 = conditions: Proteus mirabilis
Protocol: as §1, §2

P. vulgaris No. 33 = conditions: Proteus vulgaris
Protocol: as §1, §2

P. vulgaris OB1043 = conditions: Proteus vulgaris
Protocol: as §1, §2

S. aureus JS-1 = conditions: Staphylococcus aureus, JS1; S. aureus JS-1; 10^6 CFU/ml; read-out: Minimum Inhibitory Concentration
Protocol: as §1, §2

S. aureus NIHJJC-1 = conditions: Staphylococcus aureus, NIHJJC1, S. aureus NIHJJC-1; 10^6 CFU/ml; read-out: Minimum Inhibitory Concentration
Protocol: as §1, §2

S. marcescens No. 16-2 = conditions: Serratia marcescens
Protocol: as §1, §2

[1] = K. pneumoniae No. 42, 10^6 CFU/ml, read-out: Minimum Inhibitory Concentration
[2] = P. mirabilis JY10, 10^6 CFU/ml, read-out: Minimum Inhibitory Concentration
[3] = P. vulgaris No. 33, 10^6 CFU/ml, read-out: Minimum Inhibitory Concentration
[4] = OB1043, P. vulgaris OB1043, 10^6 CFU/ml, read-out: Minimum Inhibitory Concentration
[5] = NO.162, S. marcescens No. 16-2, 10^6 CFU/ml, read-out: Minimum Inhibitory Concentration
[6] = JY10, read-out: Minimum Inhibitory Concentration

Compound | MIC (A. calcoaceticus No. 14) [µg/mL] | MIC (C. freundii No. 7) [µg/mL] | MIC (E. cloaceae Nek 39) [µg/mL] | MIC (E. coli C/Rms149) [µg/mL] | MIC (E. coli CSH2) [µg/mL] | MIC (E. coli CSH) [µg/mL] | MIC (E. coli ML1410/Rte16) [µg/mL] | MIC (E. coli NIHJJC-2) [µg/mL] | MIC (E. coli W3630/Rms212) [µg/mL] | MIC (E. coli W3630/Rms213) [µg/mL] | MIC (K. pneumoniae No. 42; [1]) [µg/mL] | MIC (P. aeruginosa AK109) [µg/mL] | MIC (P. aeruginosa AKR17) [µg/mL] | MIC (P. cepacia 23) [µg/mL] | MIC (P. maltophilia IID 1275) [µg/mL] | MIC (P. vulgaris No. 33; [3]) [µg/mL] | MIC (P. vulgaris OB1043; [4]) [µg/mL] | MIC (S. aureus JS-1) [µg/mL] | MIC (S. aureus NIHJJC-1) [µg/mL] | MIC (S. marcescens No. 16-2; [5]) [µg/mL] | other results
CO/N=C(\C(=O)NC1C(=O)N2C(C(=O)[O-])=C(C[N+]3(C)CCc4cc(OC(C)=O)ccc4C3)CSC12)c1csc(N)n1 (stereo not drawn) [Ex. 9, 7-[(Z)-2-(2-aminothiazol-4-yl)-2-methoxyiminoacetamido]-3-(6-acetoxy-2-methyl-1,2,3,4-tetrahydro-2-isoquinolinium)methyl-3-cephem-4-carboxylate] | > 25 | 6.25 (≈ 10.4 µM) | 1.56 (≈ 2.6 µM) | 0.2 (≈ 0.333 µM) | 0.1 (≈ 0.166 µM) | 1.56 (≈ 2.6 µM) | 0.2 (≈ 0.333 µM) | 0.2 (≈ 0.333 µM) | 0.2 (≈ 0.333 µM) | 3.12 (≈ 5.19 µM) | 0.78 (≈ 1.3 µM) | 3.12 (≈ 5.19 µM) | 25 (≈ 41.6 µM) | 12.5 (≈ 20.8 µM) | > 25 | 0.39 (≈ 0.649 µM) | 0.78 (≈ 1.3 µM) | 12.5 (≈ 20.8 µM) | 0.39 (≈ 0.649 µM) | 12.5 (≈ 20.8 µM) | MIC (P. mirabilis JY10; [2]): 1.56 µg/mL (≈ 2.6 µM)
CO/N=C(\C(=O)NC1C(=O)N2C(C(=O)[O-])=C(C[N+]3(C)CCc4cc(O)ccc4C3)CSC12)c1csc(N)n1 (stereo not drawn) [Ex. 10, 7-[(Z)-2-(2-aminothiazol-4-yl)-2-methoxyiminoacetamido]-3-(6-hydroxy-2-methyl-1,2,3,4-tetrahydro-2-isoquinolinium)methyl-3-cephem-4-carboxylate] | 25 (≈ 44.8 µM) | 1.56 (≈ 2.79 µM) | 0.78 (≈ 1.4 µM) | 0.1 (≈ 0.179 µM) | ≤ 0.05 | 0.78 (≈ 1.4 µM) | 0.1 (≈ 0.179 µM) | 0.1 (≈ 0.179 µM) | 0.2 (≈ 0.358 µM) | 1.56 (≈ 2.79 µM) | 0.2 (≈ 0.358 µM) | 1.56 (≈ 2.79 µM) | > 25 | 6.25 (≈ 11.2 µM) | > 25 | 0.1 (≈ 0.179 µM) | – | 6.25 (≈ 11.2 µM) | 0.39 (≈ 0.698 µM) | 6.25 (≈ 11.2 µM) | MIC (P. mirabilis JY10; [2]): 0.78 µg/mL (≈ 1.4 µM); MIC (P. vulgaris OB1043; OB1043, read-out: Minimum Inhibitory Concentration): 0.39 µg/mL (≈ 0.698 µM)
CON=C(C(=O)NC1C(=O)N2C(C(=O)[O-])=C(C[N+]3(C)CCc4c(ccc(O)c4O)C3)CSC12)c1csc(N)n1 (stereo not drawn) [Ex. 11, 7-[(Z)-2-(2-aminothiazol-4-yl)-2-methoxyiminoacetamido]-3-(5,6-dihydroxy-2-methyl-1,2,3,4-tetrahydro-2-isoquinolinium)methyl-3-cephem-4-carboxylate] | 0.39 (≈ 0.679 µM) | 12.5 (≈ 21.8 µM) | 0.025 (≈ 0.0435 µM) | 0.1 (≈ 0.174 µM) | 0.39 (≈ 0.679 µM) | 0.78 (≈ 1.36 µM) | 0.1 (≈ 0.174 µM) | 0.05 (≈ 0.087 µM) | 0.025 (≈ 0.0435 µM) | 0.78 (≈ 1.36 µM) | – | 0.2 (≈ 0.348 µM) | 6.25 (≈ 10.9 µM) | 0.2 (≈ 0.348 µM) | > 50 | 0.2 (≈ 0.348 µM) | 1.56 (≈ 2.71 µM) | 25 (≈ 43.5 µM) | 6.25 (≈ 10.9 µM) | 12.5 (≈ 21.8 µM) | MIC (K. pneumoniae No. 42; NO.42, read-out: Minimum Inhibitory Concentration): 0.39 µg/mL (≈ 0.679 µM); MIC (P. mirabilis JY10; [6]): 0.39 µg/mL (≈ 0.679 µM)
CON=C(C(=O)NC1C(=O)N2C(C(=O)[O-])=C(C[N+]3(C)CCc4cc(O)c(O)c(O)c4C3)CSC12)c1csc(N)n1 (stereo not drawn) [Ex. 12, 7-[(Z)-2-(2-aminothiazol-4-yl)-2-methoxyiminoacetamido]-3-(2-methyl-1,2,3,4-tetrahydro-6,7,8-trihydroxy-2-isoquinolinium)methyl-3-cephem-4-carboxylate] | 25 (≈ 42.3 µM) | 12.5 (≈ 21.2 µM) | 1.56 (≈ 2.64 µM) | 0.78 (≈ 1.32 µM) | 1.56 (≈ 2.64 µM) | 3.12 (≈ 5.28 µM) | 1.56 (≈ 2.64 µM) | 0.78 (≈ 1.32 µM) | 0.78 (≈ 1.32 µM) | 3.12 (≈ 5.28 µM) | 1.56 (≈ 2.64 µM) | 25 (≈ 42.3 µM) | 50 (≈ 84.7 µM) | 1.56 (≈ 2.64 µM) | 100 (≈ 169 µM) | 1.56 (≈ 2.64 µM) | 3.12 (≈ 5.28 µM) | 50 (≈ 84.7 µM) | 25 (≈ 42.3 µM) | 100 (≈ 169 µM) | MIC (P. mirabilis JY10; [2]): 0.78 µg/mL (≈ 1.32 µM)
CC(C)ON=C(C(=O)NC1C(=O)N2C(C(=O)[O-])=C(C[N+]3(C)CCc4cc(O)c(O)cc4C3)CSC12)c1csc(N)n1 (stereo not drawn) [Ex. 13, 7-[(Z)-2-(2-aminothiazol-4-yl)-2-isopropoxyiminoacetamido]-3-(6,7-dihydroxy-2-methyl-1,2,3,4-tetrahydro-2-isoquinolinium)methyl-3-cephem-4-carboxylate] | 0.2 (≈ 0.332 µM) | 3.12 (≈ 5.18 µM) | 0.006 (≈ 0.00996 µM) | 0.025 (≈ 0.0415 µM) | 0.05 (≈ 0.083 µM) | 0.05 (≈ 0.083 µM) | 0.025 (≈ 0.0415 µM) | 0.05 (≈ 0.083 µM) | 0.0125 (≈ 0.0207 µM) | 0.05 (≈ 0.083 µM) | 0.1 (≈ 0.166 µM) | 0.05 (≈ 0.083 µM) | 0.2 (≈ 0.332 µM) | 0.05 (≈ 0.083 µM) | 12.5 (≈ 20.7 µM) | 0.1 (≈ 0.166 µM) | 0.2 (≈ 0.332 µM) | 12.5 (≈ 20.7 µM) | 3.12 (≈ 5.18 µM) | – | MIC (P. mirabilis JY10; [6]): 0.39 µg/mL (≈ 0.647 µM); MIC (S. marcescens No. 16-2; NO.162, read-out: Minimum Inhibitory Concentration): 1.56 µg/mL (≈ 2.59 µM)
C[N+]1(CC2=C(C(=O)[O-])N3C(=O)C(NC(=O)C(=NOCC(=O)O)c4csc(N)n4)C3SC2)CCc2cc(O)c(O)cc2C1 (stereo not drawn) [Ex. 14-F, 7-[(Z)-2-(2-aminothiazol-4-yl)-2-carboxymethoxyiminoacetamido]-3-(6,7-dihydroxy-2-methyl-1,2,3,4-tetrahydro-2-isoquinolinium)methyl-3-cephem-4-carboxylate] | 0.1 (≈ 0.162 µM) | 0.78 (≈ 1.26 µM) | 0.006 (≈ 0.0097 µM) | 0.025 (≈ 0.0404 µM) | 0.025 (≈ 0.0404 µM) | 0.05 (≈ 0.0808 µM) | 0.025 (≈ 0.0404 µM) | 0.025 (≈ 0.0404 µM) | 0.006 (≈ 0.0097 µM) | 0.1 (≈ 0.162 µM) | 0.05 (≈ 0.0808 µM) | 0.05 (≈ 0.0808 µM) | 0.1 (≈ 0.162 µM) | 0.05 (≈ 0.0808 µM) | 3.12 (≈ 5.04 µM) | – | 0.1 (≈ 0.162 µM) | 50 (≈ 80.8 µM) | 12.5 (≈ 20.2 µM) | 0.39 (≈ 0.63 µM) | MIC (P. mirabilis JY10; [2]): 0.2 µg/mL (≈ 0.323 µM); MIC (P. vulgaris No. 33; NO.33, read-out: Minimum Inhibitory Concentration): 0.05 µg/mL (≈ 0.0808 µM)
